These are literature values, as cited in paper PMC13080969 (Journal of Chemical Information and Modeling, 2026).

In general, CC50 refers to the concentration that lowers cell viability or growth by half. The IC50 is the concentration needed to halve the response being measured.

Molecules are shown by their SMILES.

Details of data set [1]: method as in PMID 39334981. To be noted: clinical comparators; read-out: CC50 (cytotoxicity); cited from earlier work.
The test system of data set [2] is intracellular L. infantum amastigotes. Details: method as in PMID 39334981. The settings on record: clinical comparators, cited from earlier work.

Take `C[C@@H]1[C@H](O)[C@@H](C)/C=C/C=C/C=C/C=C/C=C/C=C/C=C/[C@H](O[C@@H]2O[C@H](C)[C@@H](O)[C@H](N)[C@@H]2O)C[C@@H]2O[C@](O)(C[C@@H](O)C[C@@H](O)[C@H](O)CC[C@@H](O)C[C@@H](O)CC(=O)O[C@H]1C)C[C@H](O)[C@H]2C(=O)O` [Amphotericin B]: in data set [1], the cytotoxic concentration (CC50) was 1200 nM. For the same compound, the SI in data set [2] is reported as 8.6. For the same compound, the IC50 in data set [2] (read-out: IC50 against intracellular L. infantum amastigotes) is 140 nM.
